Source: ChEMBL document CHEMBL6178018, “Design of an Oral STING Agonist through Intramolecular Hydrogen Bond Ring Mimicking to Achieve Complete Tumor Regression” (J Med Chem, 2025)
Activity calls are given as the source filed them. The rule behind the calls is not given here.

Assays:
[1] = biological target: T1, Stimulator of interferon genes protein (Homo sapiens, UniProt Q86WV6); assay: Agonist activity at human STING HAQ variant in human THP1-Blue ISG cells assessed as fold change in stimulation activity measured after 24 hrs incubation by QUANTI-Blue based microplate reader; assay type: cell-based
Target sequence in this assay (Q86WV6 whole entry, looked up, change not shown): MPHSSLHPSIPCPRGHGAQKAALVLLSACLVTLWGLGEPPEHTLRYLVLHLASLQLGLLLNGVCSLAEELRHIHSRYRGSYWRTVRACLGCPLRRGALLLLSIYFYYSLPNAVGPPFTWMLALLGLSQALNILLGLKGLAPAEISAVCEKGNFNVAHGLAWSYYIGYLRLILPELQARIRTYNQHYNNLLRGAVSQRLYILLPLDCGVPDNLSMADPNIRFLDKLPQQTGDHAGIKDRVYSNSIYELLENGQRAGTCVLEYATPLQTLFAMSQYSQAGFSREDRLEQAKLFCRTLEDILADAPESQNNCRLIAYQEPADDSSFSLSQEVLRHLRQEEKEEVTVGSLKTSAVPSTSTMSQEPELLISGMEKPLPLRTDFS

[2] = biological target: T1, Stimulator of interferon genes protein; assay: Binding affinity to wild type His-tagged STING (unknown origin) measured after 3 hrs incubation by HTRF assay
Target sequence in this assay (Q86WV6 whole entry): as the sequence (Q86WV6 whole entry, looked up, change not shown) above

[3] = biological target: T2, Stimulator of interferon genes protein (Mus musculus, UniProt Q3TBT3); assay: Agonist activity at mouse STING expressed in human THP1-Dual cells assessed as fold change in stimulation activity measured after 24 hrs incubation by QUANTI-Luc4 based microplate reader; assay type: cell-based
T2 sequence (Q3TBT3 whole entry): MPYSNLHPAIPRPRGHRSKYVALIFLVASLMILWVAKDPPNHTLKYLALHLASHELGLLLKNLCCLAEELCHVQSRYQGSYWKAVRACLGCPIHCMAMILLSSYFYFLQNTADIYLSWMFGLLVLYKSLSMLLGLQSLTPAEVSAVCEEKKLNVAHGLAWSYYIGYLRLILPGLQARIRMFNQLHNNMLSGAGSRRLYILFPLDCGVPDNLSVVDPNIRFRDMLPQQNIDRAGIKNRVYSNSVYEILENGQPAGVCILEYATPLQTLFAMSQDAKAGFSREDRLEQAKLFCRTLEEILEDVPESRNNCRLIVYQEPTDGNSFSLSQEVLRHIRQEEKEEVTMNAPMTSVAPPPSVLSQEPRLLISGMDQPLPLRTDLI

[4] = biological target: T1, Stimulator of interferon genes protein; assay: Agonist activity at STING R232 mutant (unknown origin) expressed in human THP1-Dual cells assessed as fold change in stimulation activity measured after 24 hrs incubation by QUANTI-Luc4 based microplate reader; assay type: cell-based
Target sequence in this assay (Q86WV6 whole entry, looked up, change not shown): as the sequence (Q86WV6 whole entry, looked up, change not shown) above

[5] = Chemical stability of the compound in MeOH/H2O solvent assessed as half life by LC-MS/MS analysis; assay type: physicochemical
MC-38 [6] = assay: In vivo antitumor activity against mouse MC-38 cells inoculated in C57BL/6 mouse assessed as complete tumor regression (CR) at 60 mg/kg, po Q3D measured for 15 to 20 days; assay type: functional, organism-based; conditions: time 15-20 day
MC-38 [7] = assay: In vivo antitumor activity against mouse MC-38 cells inoculated in C57BL/6 mouse assessed as complete tumor regression (CR) at 60 mg/kg, po Q3D co-administered with anti-PD1 measured for 15 to 20 days; assay type: functional; conditions: time 15-20 day
[8] = Metabolic stability in mouse liver microsomes assessed as half life at 10 uM measured up to 60 mins by LC-MS/MS analysis; assay type: ADME, Microsome
[9] = Metabolic stability in human liver microsomes assessed as half life at 10 uM measured up to 60 mins by LC-MS/MS analysis; assay type: ADME, Microsome
[10] = Chemical stability of the compound in MeOH/H2O assessed as half life by LC-MS/MS analysis; assay type: physicochemical
MC-38 [11] = assay: In vivo antitumor activity against mouse MC-38 cells inoculated in C57BL/6 mouse assessed as as increase in moue survival time at 60 mg/kg, po Q3D measured for 15 to 20 days; assay type: functional, organism-based; conditions: time 15-20 day
[12] = Stability of the compound in human plasma assessed as half life by LC-MS/MS analysis; assay type: ADME, cell-free
[13] = Stability of the compound in mouse plasma assessed as half life by LC-MS/MS analysis; assay type: ADME, cell-free
[14] = biological target: T3, Interferon regulatory factor 3 (Homo sapiens) (UniProt Q14653); assay: Induction of IRF3 phosphorylation in human THP1-Blue ISG cells at 13 to 50 uM measured after 3 hrs by Western blot analysis; assay type: cell-based; conditions: filed as agonist, dose 13-50 µM
T3 sequence (whole entry): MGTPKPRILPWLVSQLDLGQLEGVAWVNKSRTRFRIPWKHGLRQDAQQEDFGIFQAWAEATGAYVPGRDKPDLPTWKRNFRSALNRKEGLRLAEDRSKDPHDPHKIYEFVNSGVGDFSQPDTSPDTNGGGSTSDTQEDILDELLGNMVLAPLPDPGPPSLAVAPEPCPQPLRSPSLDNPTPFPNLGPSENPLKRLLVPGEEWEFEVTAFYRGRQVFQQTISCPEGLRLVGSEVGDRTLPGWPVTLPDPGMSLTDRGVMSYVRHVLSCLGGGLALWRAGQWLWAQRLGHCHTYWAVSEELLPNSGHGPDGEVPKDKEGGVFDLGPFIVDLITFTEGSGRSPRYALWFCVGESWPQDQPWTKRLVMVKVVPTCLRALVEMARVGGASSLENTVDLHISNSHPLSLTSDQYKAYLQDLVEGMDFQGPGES

THP-1 [15] = assay: Induction of interferon secretion in human THP-1 cells assessed as IFN-beta level at 13 uM measured after 24 hrs by ELISA; assay type: functional, cell-based
THP1-Blue ISG = assay: Induction of STING phosphorylation in human THP1-Blue ISG cells at 13 to 50 uM measured after 3 hrs by Western blot analysis; assay type: cell-based; conditions: filed as agonist, dose 13-50 µM
THP-1 [16] = assay: Induction of interferon response in STING knock out human THP-1 cells assessed as fold change in stimulation activity at 13 to 25 uM measured after 24 hrs incubation by QUANTI-Luc4 based microplate reader; assay type: functional, cell-based; conditions: dose 13-25 µM
[17] = biological target: T1, Stimulator of interferon genes protein; assay: Agonist activity at human STING in human THP1-Blue ISG cells measured after 24 hrs incubation by QUANTI-Blue based microplate reader; assay type: cell-based
Target sequence in this assay (Q86WV6 whole entry): as the sequence (Q86WV6 whole entry, looked up, change not shown) above

[18] = Clearance in mouse at 10 mg/kg, po by LC-MS/MS analysis; assay type: ADME, organism-based; conditions: in vivo
[19] = AUC in mouse at 10 mg/kg, po by LC-MS/MS analysis; assay type: ADME, organism-based; conditions: in vivo
[20] = Oral bioavailability in mouse at 10 mg/kg by LC-MS/MS analysis; assay type: ADME, organism-based; conditions: in vivo
[21] = Half life in mouse at 5 mg/kg, iv by LC-MS/MS analysis; assay type: ADME, organism-based; conditions: in vivo
[22] = Cmax in mouse at 10 mg/kg, po by LC-MS/MS analysis; assay type: ADME, organism-based; conditions: in vivo
[23] = Cmax in mouse at 5 mg/kg, iv by LC-MS/MS analysis; assay type: ADME, organism-based; conditions: in vivo
[24] = Clearance in mouse at 5 mg/kg, iv by LC-MS/MS analysis; assay type: ADME, organism-based; conditions: in vivo
[25] = AUC in mouse at 5 mg/kg, iv by LC-MS/MS analysis; assay type: ADME, organism-based; conditions: in vivo
[26] = Half life in mouse at 10 mg/kg, po by LC-MS/MS analysis; assay type: ADME, organism-based; conditions: in vivo

| Compound | EC50 [1] | IC50 [2] | EC50 [3] | EC50 [4] | other results |
| --- | --- | --- | --- | --- | --- |
| COc1cc2sc(C(=O)NCCC(=O)O)c(I)c2cc1OC | > 100 µM | – | – | – | – |
| COc1cc2sc(C(=O)NCCC(O)(C(F)(F)F)C(F)(F)F)c(F)c2cc1OC | > 100 µM | – | – | – | – |
| C=Cc1cc2c(F)c(C(=O)NCCC(=O)O)sc2cc1OC | > 100 µM | – | – | – | – |
| COc1cc2sc(C(=O)NCCC(=O)O)c(F)c2cc1OC(C)C | > 100 µM | – | – | – | – |
| COc1cc2sc(C(=O)NCCB(O)O)c(F)c2cc1OC | > 100 µM | – | – | – | – |
| CCC(CNC(=O)c1sc2cc(Br)c(OC)cc2c1F)C(=O)O (configuration not stated) | 13.2 µM | > 100 µM | > 100 µM | > 100 µM | – |
| COc1cc2sc(C(=O)NCC(=O)O)c(F)c2cc1OC | > 100 µM | – | – | – | – |
| COc1cc2[se]c(C(=O)NCC(C)C(=O)O)c(F)c2cc1OC (configuration not stated) | 5.7 µM | – | 27 µM | 26.1 µM | – |
| CCOc1cc2c(F)c(C(=O)NCCC(=O)O)sc2cc1OC | > 100 µM | – | – | – | – |
| COc1cc2sc3c(c2cc1OC)C(=O)N(CCC(=O)O)C3=O | 4.5 µM | 22.1 µM | 25.3 µM | 19.6 µM | half-life [5]: 0.35 h; Activity (MC-38 [6]): inactive; Activity (MC-38 [7]): 60%; half-life at 10 µM [8]: > 1 h; half-life at 10 µM [9]: > 1 h; half-life [10]: 21 h; Activity (MC-38 [11]): inactive; half-life [12]: 0.5 h; half-life [13]: > 1 h |
| COc1cc2sc(C(=O)NCCS(N)(=O)=O)c(F)c2cc1OC | > 100 µM | – | – | – | – |
| CC[C@H](CNC(=O)c1sc2cc(OC)c(OC)cc2c1F)C(=O)O | 5.1 µM | 24.1 µM | 11.9 µM | 12 µM | Activity [14]: Active; Activity (THP-1 [15]): Active; Activity (THP1-Blue ISG): Active; Activity (THP-1 [16]): inactive |
| CONC(=O)CCNC(=O)c1sc2cc(OC)c(OC)cc2c1F | 33 µM | – | – | – | – |
| COc1cc2sc(C(=O)NCC(C)(C)C(=O)O)c(F)c2cc1OC | > 100 µM | – | – | – | – |
| COc1cc2sc(C(=O)NCC3(C(=O)O)CCC3)c(F)c2cc1OC | 3.7 µM | 31.2 µM | 22 µM | 18.4 µM | – |
| COc1cc2sc(C(=O)NCCC(=O)O)c(F)c2cc1F | > 100 µM | – | – | – | – |
| COc1cc2sc(C(=O)NCCC(=O)O)c(Br)c2cc1OC | 47.2 µM | – | – | – | – |
| COc1cc2cc(C(=O)NCCC(=O)O)sc2cc1OC | – | > 100 µM | – | – | EC50 [17]: > 100 µM |
| COc1cc2sc(C(=O)NCCC(=O)NS(C)(=O)=O)c(F)c2cc1OC | > 100 µM | – | – | – | – |
| CCC(CNC(=O)c1sc2cc(OC)c(OC)cc2c1F)C(=O)O (racemic) | 4.8 µM | 24.6 µM | 15.7 µM | 17.2 µM | – |
| COc1cc2sc(C(=O)NC[C@H](C)C(=O)O)c(F)c2cc1OC | 6.2 µM | 33.3 µM | 61.2 µM | 58.5 µM | – |
| COc1cc2sc(C(=O)N[C@@H](C)CC(=O)O)c(F)c2cc1OC | > 100 µM | – | – | – | – |
| COc1cc2cc(C(=O)CCC(=O)O)sc2cc1OC | 4.4 µM | 22.5 µM | 8.1 µM | 8.8 µM | CL/F [18]: 22 mL/min/kg; AUC [19]: 7570 ng·h/mL; bioavailability [20]: 52%; Activity (MC-38 [6]): inactive; half-life [21]: 0.3 h; Cmax [22]: 13400 ng/mL; Activity (MC-38 [11]): inactive; Cmax [23]: 25100 ng/mL; clearance [24]: 11.5 mL/min/kg; AUC [25]: 7260 ng·h/mL; half-life [26]: 1.5 h |
| COc1cc2sc(C(=O)NCC(C)C(=O)O)c(F)c2cc1Br (configuration not stated) | > 100 µM | – | – | – | – |
